# Results as given in US8546382B2, “Methods for enhancing hematopoietic progenitor cell engraftment” (Children's Medical Center Corporation, priority 2009, dated 2013).
# “Also recorded” adds a separate entry of the source.
# Columns and labels:
# [1] = tested on: wild-type female FVB mice; assay: BM transplantation in lethally irradiated wild-type mice with daily BADGE; type: in vivo, mouse
# Procedure: BM transplants were performed in wild-type female FVB mice as described for FIG. 2 except that 30 mg/kg BADGE or control vehicle (DMSO 10%) were administered through daily intra-peritoneal injections from the day prior to irradiation until day 14 post-transplant. 4a. […] 4b. Colony forming unit assay (CFU) from the recovered donor BM.
# Finally, it was tested whether pharmacologic antagonism of adipogenesis could enhance bone marrow engraftment in wild-type mice.
# Thorax, tibias and tails for homeostasis studies were isolated from wildtype C57BL6/J mice. When BM transplantation was performed, B6.SJL-Ptprca Pep3b/BoyJ were used as donors to take advantage of the CD45.1/CD45.2 allelic system (Jackson Laboratories #0002014). Bone marrow transplantation and CFU-Spleen assays were performed on lethally irradiated mice (two 5.5Gy doses separated by 3 hrs) and cells were administered by tail vein injection within 24 hrs of lethal irradiation. For competitive transplantation, samples were competed against 250,000 recipient-matched competitor femoral bone marrow. FVB wildtype litter-mates mice were used as controls for FVB.A-ZIP/F1 fatless mice. During BM transplantation assays FVB or FVB.A-ZIP/F1 mice (CD45.1) received 200,000 MHC-matched (H^q) wildtype BM from DBA/1J mice (CD45.2). Secondary transplants were performed through recovery of the CD45.2 […] BM passed through the FVB wildtype or FVB.A-ZIP/F1 microenvironment, which was then transplanted into FVB (CD45.1) recipients together with 250,000 FVB (CD45.1) wildtype competitor BM cells. For pharmacological inhibition of adipocyte formation, BM transplants were performed in wild-type female FVB mice as described above, except that 30 mg/kg BADGE or control vehicle (DMSO 10%) were administered in daily intraperitoneal injections starting one day prior to irradiation and continuing until day 14 post-transplant. Solutions were made such that 500 mg BADGE (Fluka) was resuspended in 8.3 ml DMSO (Sigma) and diluted in PBS to a final concentration of 10% DMSO for administration at 30 mg/kg in 100 ul. Aliquots were stored at −20° C. and thawed daily. Multicolor flow cytometry was performed in a special order BD five-laser LSRII flow cytometer. Cell cycle analysis was performed with DAPI (Sigma) in cells fixed in 2% paraformaldehyde for 15 min at 4° C. For all statistical analysis an un-paired two-tailed Student's t-test was performed assuming experimental samples of equal variance. […]
# Mice were lethally irradiated with 11-12Gy on a split dose separated by 2.5 h and BM transplants were performed within 24 h by tail-vein injection. Engraftment was measured monthly through eye bleed and FACS analysis with CD45.1-FITC (eBiosciences), CD45.2-PE or CD45.2-biotin, CD3-PE, CD19-PE, Mac-1-PE. […]
# Wildtype BM = assay: Colony forming unit (CFU) assay of wildtype BM plated with BADGE in vitro; type: cell-based, mouse; conditions: BADGE 30 mg/kg vs DMSO vehicle control (0.5 μL/mL); after 8-10 days
# Procedure: 14a. Wildtype BM was plated in the presence of BADGE 30 mg/kg, or DMSO vehicle control (0.5 μL/mL).
# Colony forming unit (CFU) assays were performed in complete M3434 methylcellulose (Stem Cell Technologies) following the manufacturer's instructions. Colonies were scored on day 8-10 on coded plates for unbiased counts.
# [2] = tested on: bone marrow adipocyte formation; conditions: in vitro and in vivo in models of streptozotocin-induced diabetes; cited from earlier work
# patients = patients treated with the PPARγ agonist; cited from earlier work
# [3] = tested on: whole bone marrow collected from the DBA/1J mouse strain; assay: Hematopoietic colony formation in methylcellulose (M3434) in the presence of PPAR gamma inhibitors; type: cell-based; conditions: 3 ml M3434 with 1.5 μL of working concentration of each compound; N=2
# Procedure: Progenitor activity was measured by formation of hematopoietic colonies in methylcellulose (M3434) from whole bone marrow collected from the DBA/1J mouse strain. Cells were plated in 3 ml M3434 along with 1.5 μL of the working concentration of each compound.
structure (smiles),measurement,setting,value
"CC(C)(c1ccc(OCC2CO2)cc1)c1ccc(OCC2CO2)cc1 (centres unmarked) [BADGE, Bisphenol-A-DiGlycidyl-Ether]",White blood cell (WBC) / leukocyte counts in peripheral blood in the post-transplant period,"[1]; 30 mg/kg BADGE daily i.p. from day prior to irradiation until day 14 post-transplant, vs vehicle (DMSO 10%)",Higher peripheral blood leukocyte counts; also recorded: accelerated recovery
same,Colony forming units (CFU) from the recovered donor BM,"[1]; 30 mg/kg BADGE daily i.p., donor CD45.2 BM recovered day 17 post-transplant",enrichment in colony forming units
same,BM adipocyte formation by H&E staining of femurs,"[1]; BADGE for two weeks following BM transplantation, mice sacrificed day 17 post-transplant",successful inhibition of BM adipocyte formation
same,Hematopoietic recovery after BM transplant,[1]; pharmacologic inhibition of adipocyte formation with BADGE,enhances hematopoietic recovery
same,Ability to form CFUs (hematopoietic colony formation) in vitro,Wildtype BM,does not enhance hematopoietic colony formation; also recorded: No difference
same,Bone marrow adipocyte formation,[2],prevent bone marrow adipocyte formation
CN(CCOc1ccc(CC2SC(=O)NC2=O)cc1)c1ccccn1 (centres unmarked) [rosiglitazone],Adverse haematological effect in treated patients,patients,myelosuppression
"O=C(Nc1ccncc1)c1cc([N+](=O)[O-])ccc1Cl [T0070907, 2-chloro-5-nitro-N-4-pyridinyl-benzamide]",Number of hematopoietic colonies relative to vehicle control,[3],fewer colonies relative to the vehicle control
